# Values joined by “and” are separate entries in the source; they are usually repeats but may differ in a detail not shown here. Equal values may be shown once. “Also recorded” adds a separate entry of the source.
# Assays:
# HCT116 tumors = assay: HCT116 OT-IL15-009 tumors in mice, IL15-IL15Ra western blot and TMP levels; format: in vivo, BALB/c nude mice; conditions: TMP 100 then 300 mg/kg orally twice a day, 17 days
# CD4 positive T cells = assay: Kinetics of IL15Ra surface expression in T cells with TMP (Table 92); format: cell-based, human; conditions: for Stabilization ratio: TMP vs DMSO;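 on all read-outs here: CD4 positive T cells, CD3/CD28 bead-activated and lentivirally transduced with DD-IL15-IL15Ra, read for surface IL15Ra positivity, stabilization ratio is fold change of ligand over DMSO, untransduced cells as negative control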
# primary T cells = assay: Regulated expression of IL15-IL15Ra in T cells (FACS); format: cell-based, human
# Procedure: The transduction was carried out at two different lentivirus concentrations, 5 μl and 20 μl for the DD regulated construct using Lentiboost™ (Sirion Biotech, Germany). […] Samples were analyzed with an anti IL15Ra antibody using FACS. Additional controls samples such as cells treated with Lentiboost only, untransduced cells treated with DMSO or TMP, and Isotype controls were included in the FACS analysis. […] In both figures, DMSO-A and TMP-A represent cells treated with 5 μl of lentivirus and DMSO-B and TMP-B represent cells treated with 20 μl of lentivirus. […] Additionally, very low levels of IL15Ra were detected in the DMSO treated samples under the same conditions as well as in the untransduced T cells.
# IL15Ra expression was measured using FACS.
# HCT116 cells [1] = assay: IL15-IL15Ra in vivo tumor study (xenograft); conditions: 5 million HCT116 cells s.c., nude mice
# Procedure: The functional capability of IL15-IL15Ra constructs was tested in vivo in xenograft assays. The experiment was designed to test the hypothesis that pulsatile expression of IL15-IL15Ra fusion proteins from cancer cell lines such as HCT116, in mice may stimulate the mouse's NK cells to attack the tumor leading to tumor growth inhibition. […] Tumors were allowed to develop over a period of 22 days.
# Mice injected with OT-IL15-009 expressing cells were left untreated, or treated with vehicle control or TMP.
# HCT-116 cells [2] = assay: Time course of IL15-IL15Ra surface expression with TMP; format: cell-based, human; conditions: 10 μM TMP
# Procedure: The time course of ligand dependent stabilization of IL15-IL15Ra fusion constructs was measured in HCT-116 cells.
# HCT116 cells [3] = assay: IL15Ra immunoblot, TMP dose response; format: cell-based, human; conditions: TMP 10, 33, 100 μM, 24 h
# From the text: Cell lysates were obtained and immunoblotted with anti IL15Ra antibody.
# Cell lysates were immunoblotted with anti IL15Ra antibody.
# HEK-293T cells = assay: IL15 western blot of DD IL15-IL15Ra, transient transfection; format: cell-based, human; conditions: 10 μM Trimethoprim or 1 μM Shield-1, 24 h
# Procedure: To test ligand dependent IL15-IL15Ra production, 1 million HEK-293T cells were plated in a 6-well plate in growth media containing DMEM and 10 FBS and incubated overnight at 37° C., 5% CO2. […] Cells were harvested and IL15 levels are analyzed via western blotting using human IL15 antibody (Abcam, Cambridge, UK).
# HEK293T cells = assay: Surface IL15 and IL15Ra FACS, transient transfection; format: cell-based, human; conditions: Shield-1 or Trimethoprim
# Procedure: 48 hours after transfection, cells were analyzed using FACS.
# HCT-116 cells [4] = assay: TMP dose response of IL15-IL15Ra surface expression (FACS); format: cell-based, human; conditions: 24 h
# From the text: Surface expression of IL15-IL15Ra fusion constructs was quantified by FACS using IL15Ra-PE antibody.
# Surface expression of IL15-IL15Ra fusion construct was quantified by FACS using IL15Ra-PE antibody.
# HCT116 cells [5] = assay: IL15 shedding into media, ELISA and MSD; format: cell-based, human; conditions: TMP doses
# Procedure: To test if IL15 is shed into the media, supernatant from HCT116 cells expressing IL15-IL15Ra fusion constructs was subject to immunoassays such as ELISA and MSD (Rockville, Maryland). In FIG. 54B, OD indicates optical density. IL15 was measured in the media of cells expressing IL15-IL15Ra fusion constructs.
substance,measurement,setting,value
"OT-IL15-009: IL15-IL15Ra fusion with ecDHFR (R12Y, Y100I) DD",IL15-IL15Ra in tumors by western blot (FIG. 49),HCT116 tumors,"elevated levels of IL15-IL15Ra expression, compared to tumors treated with the vehicle"
same,Percentage of IL15Ra positive cells,CD4 positive T cells; 100 μM TMP,16.6% and 16%
same,Proportion of CD4 T cells with surface IL15Ra over time (FIG. 48),"CD4 positive T cells; 100 μM TMP, 1-24 h","from 4 hrs after TMP treatment, the cells transduced with the OT-IL15-009 construct and treated with TMP exhibited an increased proportion of cells with surface expression of IL15Ra"
same,"percentage of IL15Ra positive CD4 positive T cells, TMP","CD4 positive T cells; 100 μM TMP, 1 hours",1.86
same,"percentage of IL15Ra positive CD4 positive T cells, TMP","CD4 positive T cells; 100 μM TMP, 2 hours",2.27
same,"percentage of IL15Ra positive CD4 positive T cells, TMP","CD4 positive T cells; 100 μM TMP, 4 hours",4.01
same,"percentage of IL15Ra positive CD4 positive T cells, TMP","CD4 positive T cells; 100 μM TMP, 6 hours",5.85
same,"percentage of IL15Ra positive CD4 positive T cells, TMP","CD4 positive T cells; 100 μM TMP, 8 hours",7.09
same,"percentage of IL15Ra positive CD4 positive T cells, TMP","CD4 positive T cells; 100 μM TMP, 15 hours",12.53
same,"percentage of IL15Ra positive CD4 positive T cells, TMP","CD4 positive T cells; 100 μM TMP, 22 hours",14.57
same,"percentage of IL15Ra positive CD4 positive T cells, TMP","CD4 positive T cells; 100 μM TMP, 24 hours",13.75
same,"percentage of IL15Ra positive CD4 positive T cells, DMSO",CD4 positive T cells; 1 hours,2.03
same,"percentage of IL15Ra positive CD4 positive T cells, DMSO",CD4 positive T cells; 2 hours,2.12
same,"percentage of IL15Ra positive CD4 positive T cells, DMSO",CD4 positive T cells; 4 hours,1.99
same,"percentage of IL15Ra positive CD4 positive T cells, DMSO",CD4 positive T cells; 6 hours,1.87
same,"percentage of IL15Ra positive CD4 positive T cells, DMSO",CD4 positive T cells; 8 hours,2.14
same,"percentage of IL15Ra positive CD4 positive T cells, DMSO",CD4 positive T cells; 15 hours,2.46
same,"percentage of IL15Ra positive CD4 positive T cells, DMSO",CD4 positive T cells; 22 hours,2.78
same,"percentage of IL15Ra positive CD4 positive T cells, DMSO",CD4 positive T cells; 24 hours,2.07
same,Stabilization ratio,CD4 positive T cells; 1 hours,0.92
same,Stabilization ratio,CD4 positive T cells; 4 hours,2.02
same,Stabilization ratio,CD4 positive T cells; 6 hours,3.13
same,Stabilization ratio,CD4 positive T cells; 8 hours,3.31
same,Stabilization ratio,CD4 positive T cells; 15 hours,5.09
same,Stabilization ratio,CD4 positive T cells; 22 hours,5.24
same,Stabilization ratio,CD4 positive T cells; 24 hours,6.64
same,Percentage of IL15Ra positive cells,CD4 positive T cells; untreated T cells,1.68% and 1%
same,IL15Ra expression in T cells (FIG. 35),primary T cells; 10 μM TMP 24/48 h or 0.156-160 μM 24 h,increase in the expression of IL15Ra in T cells with both doses of lentivirus used; also recorded: An increase in the percentage of IL15Ra cells with increasing doses of TMP was observed
same,"% Positive cells, IL15Ra positive","primary T cells; T cells, surface expression",15.8%
same,"% Positive cells, IL15 and IL15Ra positive","primary T cells; T cells, surface expression",0.51%
same,"% Positive cells, IL15 positive","primary T cells; T cells, surface expression",0.60%
same,Tumor growth (FIG. 55),HCT116 cells [1],mice treated with TMP had smaller tumors than mice of the other two groups
same,"MFI, surface IL15-IL15Ra",HCT-116 cells [2]; 0 h,4004
same,"MFI, surface IL15-IL15Ra",HCT-116 cells [2]; 12 h,7054
same,"MFI, surface IL15-IL15Ra",HCT-116 cells [2]; 16 h,9390
same,"MFI, surface IL15-IL15Ra",HCT-116 cells [2]; 24 h,14056
same,"MFI, surface IL15-IL15Ra",HCT-116 cells [2]; 48 h,28644
same,"MFI, surface IL15-IL15Ra",HCT-116 cells [2]; 72 h,35303
same,"IL15Ra expression by immunoblot (FIG. 26, 27, 54A)",HCT116 cells [3],"virtually undetectable in the absence of TMP, and addition of increasing doses of TMP resulted in an increase in IL15Ra levels"
same,IL15 stabilization by western blot (FIG. 24A),HEK-293T cells,strong ligand (Trimethoprim) dependent stabilization of IL15
same,"Surface expression of IL15 and IL15Ra (FIG. 24B, 24C)",HEK293T cells,strong ligand (Trimethoprim) dependent surface expression of IL15 and IL15Ra
same,"Median Fluorescence Intensity, surface IL15-IL15Ra",HCT-116 cells [4]; DMSO,1260
same,"Median Fluorescence Intensity, surface IL15-IL15Ra",HCT-116 cells [4]; TMP 0.01 μM,1384
same,"Median Fluorescence Intensity, surface IL15-IL15Ra",HCT-116 cells [4]; TMP 0.02 μM,1492
same,"Median Fluorescence Intensity, surface IL15-IL15Ra",HCT-116 cells [4]; TMP 0.05 μM,1947
same,"Median Fluorescence Intensity, surface IL15-IL15Ra",HCT-116 cells [4]; TMP 0.14 μM,2741
same,"Median Fluorescence Intensity, surface IL15-IL15Ra",HCT-116 cells [4]; TMP 0.41 μM,3360
same,"Median Fluorescence Intensity, surface IL15-IL15Ra",HCT-116 cells [4]; TMP 3.7 μM,4265
same,"Median Fluorescence Intensity, surface IL15-IL15Ra",HCT-116 cells [4]; TMP 11.11 μM,4267
same,"Median Fluorescence Intensity, surface IL15-IL15Ra",HCT-116 cells [4]; TMP 33.33 μM,4485
same,"Median Fluorescence Intensity, surface IL15-IL15Ra",HCT-116 cells [4]; TMP 100 μM,4633
same,"Median Fluorescence Intensity, surface IL15-IL15Ra",HCT-116 cells [4]; TMP […],4014
same,"IL15 levels in the media (FIG. 54B, 54C)",HCT116 cells [5],TMP dose dependent increase in IL15 levels detected in the media
